Experimental data from patent US20220378766A1, “[…] OF A GENE ENCODING AN […] BY TREATING A HUMAN SUBJECT WITH A NITROXIDE” (priority 2021, published 2022).

System: UCP3
Experiment: Effects of Tempol on gene expression in mice, chip-based microarray of cardiac tissue
Type: in vivo
Conditions: Tempol 5 mg/g of food from 14 to 31 months after birth
Experimental: To assess the effects of Tempol on gene expression, Tempol was administered to experimental mice at a dose of 5 mg/g of food from 14 months to 31 months after birth. Mice receiving the same food without the addition of Tempol were used as a negative control. At the age of 31 months, the experimental animals were sacrificed and the hearts were surgically removed. The expression of a broad spectrum of genes in the cardiac tissue was assessed using chip-based microarray technology. Such chips are well known in the art and are widely used to assess gene expression.

Structure (SMILES): CC1(C)CC(O)CC(C)(C)N1[O] [Tempol, 4-hydroxy-2,2,6,6-tetramethylpiperidine-1-oxyl]
- expression of UCP3 (cardiac tissue, microarray): statistically significant increase in expression
- Fold change (UCP3 gene expression after Tempol administration) (vs. same food without Tempol, cardiac tissue per text (table title says adipose tissue), P-value 0.00): 1.57
